In ChEMBL document CHEMBL1126161, “3,4-Dihydroquinolin-2(1H)-ones as combined inhibitors of thromboxane A2 synthase and cAMP phosphodiesterase” (J Med Chem, 1992):
Where “and” joins values, the source holds several entries; their conditions need not be identical. Equal values may be shown once. Values belong to the compound of their own block, whether it stands above or below them.

What was measured:
Homo sapiens [1] = species: Homo sapiens; assay: Inhibition of ADP-induced aggregation of human PRP in the absence of pig aortal microsomes (PAM); type: functional
Homo sapiens [2] = species: Homo sapiens; assay: In vitro inhibition of ADP-induced aggregation of human PRP in the presence of pig aortal microsomes (PAM).; type: functional
Homo sapiens [3] = species: Homo sapiens; assay: Ratio of IC50(w/oPAM)/IC50(w/PAM); type: functional
Homo sapiens [4] = species: Homo sapiens; assay: (§1) Ratio of IC50(PDE)/IC50(TXA2); type: functional
Phosphodiesterase 3 = Phosphodiesterase 3 (Homo sapiens, UniProt Q14432+Q13370); assay: Inhibition of human blood platelet c-AMP phosphodiesterase
Rattus norvegicus [5] = assay: Effect of TXA2 synthase inhibitor (compound) on serum TXB2 level in rats at 50 mg/kg po, after 2 hr; type: functional
Thromboxane-A synthase = target: T1, Thromboxane-A synthase (Homo sapiens, UniProt P24557); assay: Compound was evaluated for the inhibition of human blood platelet, thromboxane A2 synthase
T1 sequence (P24557 whole entry): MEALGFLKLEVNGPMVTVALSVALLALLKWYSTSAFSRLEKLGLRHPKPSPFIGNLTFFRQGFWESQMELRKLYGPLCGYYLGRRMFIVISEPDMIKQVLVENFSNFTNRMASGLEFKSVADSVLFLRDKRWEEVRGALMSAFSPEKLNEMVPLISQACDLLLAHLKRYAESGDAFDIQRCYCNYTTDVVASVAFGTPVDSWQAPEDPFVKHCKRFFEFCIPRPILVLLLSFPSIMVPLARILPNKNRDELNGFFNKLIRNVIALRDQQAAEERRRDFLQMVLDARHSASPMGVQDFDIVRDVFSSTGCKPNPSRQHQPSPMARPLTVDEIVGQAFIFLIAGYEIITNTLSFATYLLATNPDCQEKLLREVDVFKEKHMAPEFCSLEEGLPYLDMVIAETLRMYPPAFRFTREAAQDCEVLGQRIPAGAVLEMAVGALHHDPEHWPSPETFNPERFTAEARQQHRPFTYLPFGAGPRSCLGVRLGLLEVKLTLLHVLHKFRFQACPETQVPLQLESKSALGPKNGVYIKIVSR

Rattus norvegicus [6] = assay: (§2) Antihypertensive activity in conscious spontaneously hypertensive rat (SHR), percent change in Systolic blood pressure (SBP) after 1 hr; type: functional; set-up: concentration or dose not given beside the values
Rattus norvegicus [7] = assay: Antihypertensive activity in conscious spontaneously hypertensive rat (SHR), percent change in heart rate (beats/min) after 2 hr at 10 mg/kg peroral dose; type: functional; conditions: route oral
Rattus norvegicus [8] = assay: Antihypertensive activity in conscious spontaneously hypertensive rat (SHR), percent change in Systolic blood pressure (SBP) after 2 hr at 10 mg/kg peroral dose; type: functional; conditions: route oral
Rattus norvegicus [9] = assay: Antihypertensive activity in conscious spontaneously hypertensive rat (SHR), percent change in heart rate (beats/min) after 4 hr at 10 mg/kg peroral dose; type: functional; conditions: route oral
Homo sapiens [10] = species: Homo sapiens; assay: Inhibition of [14C]arachidonic acid conversion to 6-keto-PGF1-alpha in platelets at 1 uM (Control 6-keto-PGF1-alpha = 1.45+/-0.6)
Homo sapiens [11] = species: Homo sapiens; assay: Inhibition of [14C]arachidonic acid induced platelet aggregation at 10 uM (Control TXB2 = 14.9+/-2.5); type: functional
Rattus norvegicus [12] = assay: Antihypertensive activity in conscious spontaneously hypertensive rat (SHR), percent change in heart rate (beats/min) after 2 hr; type: functional
Homo sapiens [13] = species: Homo sapiens; assay: Inhibition of [14C]arachidonic acid induced 6-keto-PGF1-alpha formation at 10 uM (Control 6-keto-PGF1-alpha = 1.45+/-0.6)
Homo sapiens [14] = species: Homo sapiens; assay: Inhibition of [14C]arachidonic acid induced platelet aggregation at 1 uM (Control TXB2 = 14.9+/-2.5); type: functional
Mus musculus [15] = assay: Protection against mortality in pulmonary thromboembolism model in mice at 1 mg/kg; type: functional
Rattus norvegicus [16] = assay: Antihypertensive activity in conscious spontaneously hypertensive rat (SHR), percent change in Systolic blood pressure (SBP) after 4 hr; type: functional
Rattus norvegicus [17] = assay: as §2; type: functional
Rattus norvegicus [18] = assay: Ex vivo inhibition of blood platelet aggregation in rats at 50 mg/kg peroral dose after 3 hr; type: functional; conditions: route oral
Rattus norvegicus [19] = assay: Ex vivo inhibition of blood platelet aggregation in rats at 50 mg/kg peroral dose after 8 hr; type: functional; conditions: route oral
Mus musculus [20] = assay: Protection against mortality in pulmonary thromboembolism model in mice at 3 mg/kg; type: functional
Rattus norvegicus [21] = assay: Antihypertensive activity in conscious spontaneously hypertensive rat (SHR), percent change in heart rate (beats/min) after 1 hr; type: functional
Rattus norvegicus [22] = assay: Antihypertensive activity in conscious spontaneously hypertensive rat (SHR), percent change in Systolic blood pressure (SBP) after 2 hr; type: functional
Rattus norvegicus [23] = assay: Antihypertensive activity in conscious spontaneously hypertensive rat (SHR), percent change in heart rate (beats/min) after 4 hr; type: functional
Mus musculus [24] = assay: Protection against mortality in pulmonary thromboembolism model in mice at 10 mg/kg; type: functional
Rattus norvegicus [25] = assay: Ex vivo inhibition of blood platelet aggregation in rats at 50 mg/kg peroral dose after 5 hr; type: functional; conditions: route oral
Homo sapiens [26] = species: Homo sapiens; assay: Inhibition of [14C]arachidonic acid induced platelet TXB2 formation at 0.1 uM (Control TXB2 = 14.9+/-2.5)
Mus musculus [27] = assay: Protection against mortality in pulmonary thromboembolism model in mice at 30 mg/kg; type: functional
Rattus norvegicus [28] = assay: Antihypertensive activity in conscious spontaneously hypertensive rat (SHR), percent change in Systolic blood pressure (SBP) after 4 hr at 10 mg/kg peroral dose; type: functional; conditions: route oral
Rattus norvegicus [29] = assay: Antihypertensive activity in conscious spontaneously hypertensive rat (SHR), percent change in heart rate (beats/min) after 1 hr at 10 mg/kg peroral dose; type: functional; conditions: route oral
Homo sapiens [30] = species: Homo sapiens; assay: as §1
Mus musculus [31] = assay: Protection against mortality in pulmonary thromboembolism model in mice at 9 mg/kg; type: functional
Rattus norvegicus [32] = assay: Ex vivo inhibition of blood platelet aggregation in rats at 100 mg/kg peroral dose after 8 hr; type: functional; conditions: route oral
Rattus norvegicus [33] = assay: Ex vivo inhibition of blood platelet aggregation in rats at 100 mg/kg peroral dose after 3 hr; type: functional; conditions: route oral
Homo sapiens [34] = species: Homo sapiens; assay: Inhibition of [14C]arachidonic acid induced TXB2 formation at 5 uM (Control TXB2 = 14.9+/-2.5)
Mus musculus [35] = species: Mus musculus; assay: Time course of protection against mortality in a pulmonary thromboembolism model in mice after -1h; type: functional
Rattus norvegicus [36] = assay: Effect of TXA2 synthase inhibitor (compound) on serum TXB2 level in rats at 50 mg/kg po, after 2 hr.; type: functional
Mus musculus [37] = species: Mus musculus; assay: Time course of protection against mortality in a pulmonary thromboembolism model in mice after -5h; type: functional
Homo sapiens [38] = species: Homo sapiens; assay: Inhibition of [14C]arachidonic acid induced platelet aggregation at 50 uM (Control TXB2 = 14.9+/-2.5); type: functional
Mus musculus [39] = species: Mus musculus; assay: Time course of protection against mortality in a pulmonary thromboembolism model in mice after -3h; type: functional
Mus musculus [40] = assay: Protection against mortality in pulmonary thromboembolism model in mice at 12 mg/kg; type: functional
Mus musculus [41] = species: Mus musculus; assay: Time course of protection against mortality in a pulmonary thromboembolism model in mice after -7h; type: functional
Rattus norvegicus [42] = assay: Ex vivo inhibition of blood platelet aggregation in rats at 100 mg/kg peroral dose after 5 hr; type: functional; conditions: route oral
Homo sapiens [43] = species: Homo sapiens; assay: Inhibition of [14C]arachidonic acid induced platelet aggregation at 50 uM (Control 6-keto-PGF1-alpha = 1.45+/-0.6); type: functional

IC50 (Homo sapiens [1]): 11 µM
IC50 (Homo sapiens [2]): 3 µM
SMILES: O=C1CCc2cc(C(c3ccccc3)c3cccnc3)ccc2N1 (centres undefined)

IC50 (Phosphodiesterase 3): 16 µM
IC50 (Homo sapiens [1]): 80 µM
IC50 (Thromboxane-A synthase): 2 µM
IC50 (Homo sapiens [2]): 2 µM
SMILES: O=C1CCc2cc(-n3ccnc3)ccc2N1
Ratio (Homo sapiens [3]): 40
Ratio (Homo sapiens [4]): 8
inhibition in vivo at 50 mg/kg (Rattus norvegicus [5]): 77%

IC50 (Homo sapiens [1]): 90 µM
IC50 (Homo sapiens [2]): 2.2 µM
SMILES: C/C(=C\c1cccnc1)c1ccc2c(c1)CCC(=O)N2
Ratio (Homo sapiens [3]): 41
Change systolic BP (Rattus norvegicus [6]): -19% and -16%
Change in heart rate (Rattus norvegicus [7]): 20%
Change systolic BP (Rattus norvegicus [8]): -15%
Change in heart rate (Rattus norvegicus [9]; 10 mg/kg): 12% and 25%

SMILES: O=C1CCc2cc(-c3cccnc3)ccc2N1
6-keto-PGF1α level at 1 µM (Homo sapiens [10]): 7.7%
TXB2 level at 10 µM (Homo sapiens [11]): 4.5%
Ratio (Homo sapiens [3]): 50
Ratio (Homo sapiens [4]): 8.1
IC50 (Phosphodiesterase 3): 4.4 µM
Change in heart rate (Rattus norvegicus [12]): 18%
inhibition in vivo at 50 mg/kg (Rattus norvegicus [5]): 94%
6-keto-PGF1α level at 10 µM (Homo sapiens [13]): 31.9%
TXB2 level at 1 µM (Homo sapiens [14]): 14.8%
survival at 1 mg/kg (Mus musculus [15]): 20%
Change systolic BP (Rattus norvegicus [16]): -22%
IC50 (Homo sapiens [1]): 27 µM
Change systolic BP (Rattus norvegicus [17]): -42%
inhibition in vivo at 50 mg/kg (Rattus norvegicus [18]): 94.7%
inhibition in vivo at 50 mg/kg (Rattus norvegicus [19]): 4.7%
IC50 (Thromboxane-A synthase): 0.54 µM
survival at 3 mg/kg (Mus musculus [20]): 40%
IC50 (Homo sapiens [2]): 0.54 µM
Change in heart rate (Rattus norvegicus [21]): 13%
Change systolic BP (Rattus norvegicus [22]): -28%
Change in heart rate (Rattus norvegicus [23]): 13%
survival at 10 mg/kg (Mus musculus [24]): 40%
inhibition in vivo at 50 mg/kg (Rattus norvegicus [25]): 53.2%
TXB2 level at 0.1 µM (Homo sapiens [26]): 21.1%
survival at 30 mg/kg (Mus musculus [27]): 50%

IC50 (Homo sapiens [1]): 95 µM
IC50 (Homo sapiens [2]): 6.2 µM
SMILES: O=C1CCc2cc(/C=C/c3cccnc3)ccc2N1
Ratio (Homo sapiens [3]): 15
Change systolic BP (Rattus norvegicus [6]): -7%
Change systolic BP (Rattus norvegicus [28]): -12%
Change in heart rate (Rattus norvegicus [29]): 11%
Change in heart rate (Rattus norvegicus [7]): 23%
Change systolic BP (Rattus norvegicus [8]): -7%
Change in heart rate (Rattus norvegicus [9]): 32%

IC50 (Homo sapiens [1]): 140 µM
IC50 (Homo sapiens [2]): 8.3 µM
SMILES: O=C1CCc2cc(CCn3ccnc3)ccc2N1
Ratio (Homo sapiens [3]): 17
Change systolic BP (Rattus norvegicus [6]): -14%
Change systolic BP (Rattus norvegicus [28]): -13%
Change in heart rate (Rattus norvegicus [29]): 17%
Change in heart rate (Rattus norvegicus [7]): 34%
Change systolic BP (Rattus norvegicus [8]): -2%
Change in heart rate (Rattus norvegicus [9]): 12%

IC50 (Homo sapiens [1]): 37 µM
IC50 (Homo sapiens [2]): 2.5 µM
SMILES: CCCCCC(c1ccc2c(c1)CCC(=O)N2)n1ccnc1 (centres undefined)

SMILES: O=C1CCc2cc(C(c3ccccc3)n3ccnc3)ccc2N1 (centres undefined)
IC50 (Phosphodiesterase 3): 40 µM
Ratio (Homo sapiens [30]): 114
survival at 1 mg/kg (Mus musculus [15]): 20%
IC50 (Homo sapiens [1]): 44 µM
IC50 (Thromboxane-A synthase): 0.35 µM
survival at 3 mg/kg (Mus musculus [20]): 20%
IC50 (Homo sapiens [2]): 0.35 µM
survival at 9 mg/kg (Mus musculus [31]): 40%

IC50 (Homo sapiens [1]): 160 µM
IC50 (Homo sapiens [2]): 1.7 µM
SMILES: O=C1CCc2cc(/C=C/Cn3ccnc3)ccc2N1
Ratio (Homo sapiens [3]): 94
inhibition in vivo at 50 mg/kg (Rattus norvegicus [5]): -28%
Change systolic BP (Rattus norvegicus [6]): -19%
Change systolic BP (Rattus norvegicus [28]): 5%
Change in heart rate (Rattus norvegicus [29]): 15%
Change in heart rate (Rattus norvegicus [7]): 15%
Change systolic BP (Rattus norvegicus [8]): -17%
Change in heart rate (Rattus norvegicus [9]): 14%

IC50 (Homo sapiens [2]): 37 µM
SMILES: CCCCCC(Cc1cccnc1)c1ccc2c(c1)CCC(=O)N2 (centres undefined)

IC50 (Homo sapiens [1]): 270 µM
IC50 (Homo sapiens [2]): 28 µM
SMILES: O=C1CCc2cc(/C(=C/n3ccnc3)c3ccccc3)ccc2N1
Ratio (Homo sapiens [3]): 9.6

SMILES: Cl.O=C(O)c1ccc(OCCn2ccnc2)cc1 [DAZOXIBEN HYDROCHLORIDE]
inhibition in vivo at 100 mg/kg (Rattus norvegicus [32]): 50.9%
inhibition in vivo at 100 mg/kg (Rattus norvegicus [33]): 23.4%
TXB2 level at 5 µM (Homo sapiens [34]): 2.4%
Survival (Mus musculus [35]): 40%
survival at 1 mg/kg (Mus musculus [15]): 20%
inhibition in vivo at 50 mg/kg (Rattus norvegicus [36]): 74%
Survival (Mus musculus [37]): 20%
inhibition at 50 µM (Homo sapiens [38]): 1.5%
Survival (Mus musculus [39]): 20%
survival at 12 mg/kg (Mus musculus [40]): 50%
Survival (Mus musculus [41]): 10%
inhibition in vivo at 100 mg/kg (Rattus norvegicus [42]): 24.6%
6-keto-PGF1α level at 50 µM (Homo sapiens [43]): 25.2%
survival at 9 mg/kg (Mus musculus [31]): 40%
survival at 30 mg/kg (Mus musculus [27]): 50%

IC50 (Homo sapiens [2]): 58 µM
SMILES: CCCCC/C(=C\c1cccnc1)c1ccc2c(c1)CCC(=O)N2
